Source: US20150065423A1, “RAPID ACTING INJECTABLE FORMULATIONS” (Perosphere, Inc., priority 2013, published 2015)
Converted amounts (≈) assume the structure as drawn.

Experiments:
[1] = Soluble concentration of nitroglycerin measured by HPLC; settings: aqueous with cosolvent or surfactant or cyclodextrin
Text: The resultant suspension was centrifuged and the supernatant withdrawn to become the test article. […] The results are depicted in FIG. 1.

[2] = "it is believed"; cited from earlier work

O=[N+]([O-])OCC(CO[N+](=O)[O-])O[N+](=O)[O-] [nitroglycerin]
solubility ([1]; soluble concentration of nitroglycerin, in presence of 5% aqueous solution of Pluronic F127): ~3800 µg/mL
solubility ([1]; soluble concentration of nitroglycerin, in presence of 5% aqueous solution of Tween 80): ~4500 µg/mL
solubility ([1]; thermodynamic from solid, final concentration of nitroglycerin (solubility limit)): ~1000 µg/mL (≈ 4.4 mM)
solubility ([1]; thermodynamic from solid, soluble concentration of nitroglycerin, in presence of 20% aqueous solution of PEG3350): 2000 µg/mL
water solubility [2]: < 1000 µg/mL
